As a reminder, the Ki is a dissociation constant, usually derived from enzyme kinetics or from competition with a known ligand.

Assay [1] deals with aggregated beta amyloid in AD tissue (Homo sapiens, UniProt P05067). Nature of the assay: Competitive radioligand binding to pathological aggregated beta amyloid in AD tissue (Assay 2), displacement of [^3H]-105. Conditions: Aβ-rich AD frontal cortex homogenate, [^3H]-105, Kd 11.0 nM.
Method: Frozen human brain samples of Alzheimer's disease (AD) were purchased from Analytic Biological Services Inc. The samples were post-mortem tissue from donors with clinical diagnosis of AD and much of the white matter was dissected out of the frontal cortex in order to enrich the tissue preparations for gray matter. Brain homogenates of gray matter enriched frontal cortex were prepared by homogenizing the tissue in ice cold Phosphate Buffered Saline (PBS), pH 7.4 at 80 mg wet weight tissue per 1 ml for 45 seconds at 4° C., on setting 16 of Polytron. The homogenate was further diluted with ice cold PBS to 30 mg wet weight tissue per 1 ml and homogenized for an additional minute as described above. Homogenates were aliquoted in 5 ml/tube and stored at −70° C. until use.
Radioligand [^3H]-105, prepared as described in ACS Med. Chem. Lett., Vol. 2, pages 498-502, was used in this assay.
For Assay 2 unlabeled test compounds were dissolved in DMSO at 10 mM. Dilutions of tests compounds to various concentrations were made in 100% DMSO at 1000× final assay concentration and 0.225 μl aliquots were dispensed into assay plates. Brain homogenates were diluted to 0.5 mg/ml from original 30 mg/ml volume in Assay Buffer, and 200 μl were added to the assay plate for a final concentration of 100 ug wet weight/assay well. [^3H]-105 was prepared at 10× final concentration in Assay Buffer plus 20% DMSO and 25 μl was added to the assay plate for final assay concentration of 3.0 nM. The plates were incubated at 37° C. for 90 minutes. Unbound and bound ligand were separated by filtration of bound onto GF/B filter plates (pre-treated for 30 min with 0.1% PEI) using a Packard Filtermate and washing away unbound with 2.5 mil ice cold 5 mM Tris at pH 7.4. Filter plates were dried for 1 hr at 57° C. and 50 μl Microscint was added to each well of the plate. The plates were counted for ^3H cpm for 1 min per well using PerkinElmer TopCount.
Assay [2] concerns the target T1, triton-extracted alpha-synuclein from PD Tissue (Homo sapiens, UniProt P37840).
T1 construct: tissue Analytic Biological Services Inc; host or cells: human PD temporal cortex grey matter, Triton X-100 insoluble pellet
Nature of the assay: Alpha-synuclein tissue homogenate binding assay (Assay 1), displacement of [^3H]-1000. Conditions: for Selectivity ratio (Assay 2/Assay 1): Aβ Tissue Ki / α-synuclein Tissue Ki; for Ki: read-out: α-synuclein Tissue Ki (Assay 1).

Where [3] appears, read: insoluble fraction of PD brain homogenate, [^3H]-1000 3.0 nM, Kd 0.90 nM.

Molecules are shown by their SMILES. Where two headings read alike, the source gives them in different places.

Sequence of aggregated beta amyloid in AD tissue (P05067 672-711 limits assumed): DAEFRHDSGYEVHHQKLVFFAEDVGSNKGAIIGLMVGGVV

As to `CNCC1CN(c2cc(F)ncn2)CCN1c1ncc(C#Cc2ccc(-c3cnco3)nc2)cn1` (centres unmarked) [Example 65, 1-(4-(6-fluoropyrimidin-4-yl)-1-(5-((6-(oxazol-5-yl)pyridin-3-yl)ethynyl)pyrimidin-2-yl)piperazin-2-yl)-N-methylmethanamine], the results for the Ki in assay [1] and in assay [2] (setting [3]) were ≥ 1200 nM and 1.1 nM, respectively. In addition, in assay [2], the “Selectivity ratio (Assay 2/Assay 1)” value worked out at 1093.
With `COC[C@H]1CN(c2ncc(/C=C/c3ccc(-n4ccnc4)nc3)cn2)CCN1c1ncc(CO)cn1` [Example 7, (R,E)-(2-(4-(5-(2-(6-(1H-imidazol-1-yl)pyridin-3-yl)vinyl)pyrimidin-2-yl)-2-(methoxymethyl)piperazin-1-yl)pyrimidin-5-yl)methanol], the Ki in assay [1] amounted to 480 nM. Also, in assay [2], the “Selectivity ratio (Assay 2/Assay 1)” value turned out to be 436 and the Ki is 1.1 nM.
As to `Cn1cc(-c2ccc(C#Cc3cnc(N4CCN(c5ncncn5)[C@@H](COCCF)C4)nc3)cn2)cn1` [Example 50, (R)-2-(2-((2-fluoroethoxy)methyl)-4-(5-((6-(1-methyl-1H-pyrazol-4-yl)pyridin-3-yl)ethynyl)pyrimidin-2-yl)piperazin-1-yl)-1,3,5-triazine], the Ki in assay [1] was ≥ 1200 nM; in assay [2] (setting [3]), 0.449 nM. Besides, the “Selectivity ratio (Assay 2/Assay 1)” value in assay [2] came to 2673.
Regarding `Cc1cn(-c2ccc(/C=C/c3cnc(N4CCN(c5ncccn5)[C@@H](COCCF)C4)nc3)cn2)cn1` [Example 40, (R,E)-2-(3-((2-fluoroethoxy)methyl)-4-(pyrimidin-2-yl)piperazin-1-yl)-5-(2-(6-(4-methyl-1H-imidazol-1-yl)pyridin-3-yl)vinyl)pyrimidine], the Ki in assay [1] is ≥ 1200 nM; in assay [2], 0.42 nM. Also, the “Selectivity ratio (Assay 2/Assay 1)” value in assay [2] came out at 2857.
For `OCC(F)COC[C@H]1CN(c2ncc(C#Cc3ccc(-n4ccnc4)nc3)cn2)CCN1c1ncccn1` (stereo partly drawn) [Example 63, 3-(((R)-4-(5-((6-(1H-imidazol-1-yl)pyridin-3-yl)ethynyl)pyrimidin-2-yl)-1-(pyrimidin-2-yl)piperazin-2-yl)methoxy)-2-fluoropropan-1-ol], the Ki is ≥ 1200 nM in assay [1] and 0.913 nM in assay [2] (setting [3]). For the same molecule, the “Selectivity ratio (Assay 2/Assay 1)” value in assay [2] is 1314.
In the same order, the values of `COC[C@H]1CN(c2ncc(C)cn2)CCN1c1ncc(/C=C/c2ccc(-n3ccnc3)nc2)cn1` [Example 25, (R,E)-5-(2-(6-(1H-imidazol-1-yl)pyridin-3-yl)vinyl)-2-(2-(methoxymethyl)-4-(5-methylpyrimidin-2-yl)piperazin-1-yl)pyrimidine] are 360 nM, 0.9 nM and 400.
Taken in the same sequence, the figures for `FCCOC[C@H]1CN(c2ncccn2)CCN1c1ncc(/C=C/c2ccc(-n3ccnc3)nc2)cn1` [Example 30, (R,E)-5-(2-(6-(1H-imidazol-1-yl)pyridin-3-yl)vinyl)-2-(2-((2-fluoroethoxy)methyl)-4-(pyrimidin-2-yl)piperazin-1-yl)pyrimidine] were ≥ 12000 nM, 1 nM and 12000.
Taken in the same sequence, the figures for `FCCCOC[C@H]1CN(c2ncc(C#Cc3ccc(-c4cnco4)nc3)cn2)CCN1c1ncncn1` [Example 74, (R)-5-(5-((2-(3-((3-fluoropropoxy)methyl)-4-(1,3,5-triazin-2-yl)piperazin-1-yl)pyrimidin-5-yl)ethynyl)pyridin-2-yl)oxazole] were ≥ 1200 nM, 1.94 nM and 618.
For `FCCOC[C@H]1CN(c2ncc(/C=C/c3ccc(-c4cnco4)nc3)cn2)CCN1c1ncncn1` [Example 41, (R,E)-5-(5-(2-(2-(3-((2-fluoroethoxy)methyl)-4-(1,3,5-triazin-2-yl)piperazin-1-yl)pyrimidin-5-yl)vinyl)pyridin-2-yl)oxazole], the Ki in assay [1] was ≥ 1200 nM; in assay [2] (setting [3]), 0.8 nM. Also, the “Selectivity ratio (Assay 2/Assay 1)” value in assay [2] is listed as 1500.
Taken in the same sequence, the figures for `FCCOC[C@H]1CN(c2ncc(/C=C/c3ccc(-c4cnco4)nc3)cn2)CCN1c1ncccn1` [Example 36, (R,E)-5-(5-(2-(2-(3-((2-fluoroethoxy)methyl)-4-(pyrimidin-2-yl)piperazin-1-yl)pyrimidin-5-yl)vinyl)pyridin-2-yl)oxazole] were ≥ 12000 nM, 0.94 nM and 12000.
Turning to `FCCOC[C@H]1CN(c2ncc(C#Cc3ccc(-n4cnnc4)nc3)cn2)CCN1c1ncncn1` [Example 70, (R)-2-(4-(5-((6-(4H-1,2,4-triazol-4-yl)pyridin-3-yl)ethynyl)pyrimidin-2-yl)-2-((2-fluoroethoxy)methyl)piperazin-1-yl)-1,3,5-triazine], the Ki in assay [1] was ≥ 1200 nM; in assay [2] (setting [3]) it was 2.54 nM. Besides, the “Selectivity ratio (Assay 2/Assay 1)” value in assay [2] was determined as 472.
In the case of `COC[C@H]1CN(c2cc(F)ccn2)CCN1c1ncc(/C=C/c2ccc(-n3ccnc3)nc2)cn1` [Example 17, (R,E)-5-(2-(6-(1H-imidazol-1-yl)pyridin-3-yl)vinyl)-2-(4-(4-fluoropyridin-2-yl)-2-(methoxymethyl)piperazin-1-yl)pyrimidine], the Ki in assay [1] is ≥ 12000 nM. Moreover, the “Selectivity ratio (Assay 2/Assay 1)” value in assay [2] turned out to be 13333.
For the molecule `COCCOC[C@H]1CN(c2ncc(C#Cc3ccc(-n4ccnc4)nc3)c(F)n2)CCN1c1ncncn1` [Example 80, (R)-2-(4-(5-((6-(1H-imidazol-1-yl)pyridin-3-yl)ethynyl)-4-fluoropyrimidin-2-yl)-2-((2-methoxyethoxy)methyl)piperazin-1-yl)-1,3,5-triazine], the Ki in assay [1] was ≥ 1200 nM; in assay [2] (setting [3]) it was 1.51 nM. Also, the “Selectivity ratio (Assay 2/Assay 1)” value in assay [2] stood at 794.
Turning to `COC[C@H]1CN(c2ncc(C#Cc3ccc(-c4cnn(CCOCCF)c4)nc3)cn2)CCN1c1ncncn1` [Example 77, (R)-2-(4-(5-((6-(1-(2-(2-fluoroethoxy)ethyl)-1H-pyrazol-4-yl)pyridin-3-yl)ethynyl)pyrimidin-2-yl)-2-(methoxymethyl)piperazin-1-yl)-1,3,5-triazine], the Ki in assay [1] was ≥ 1200 nM; in assay [2] (setting [3]) it was 1.7 nM. The “Selectivity ratio (Assay 2/Assay 1)” value in assay [2] is 705.
Taken in the same sequence, the figures for `COC[C@H]1CN(c2ccnc(F)c2)CCN1c1ncc(/C=C/c2ccc(-n3ccnc3)nc2)cn1` [Example 29, (R,E)-5-(2-(6-(1H-imidazol-1-yl)pyridin-3-yl)vinyl)-2-(4-(2-fluoropyridin-4-yl)-2-(methoxymethyl)piperazin-1-yl)pyrimidine] were 180 nM, 1 nM and 180.
Turning to `FCCOCCOC[C@H]1CN(c2ncc(/C=C/c3ccc(-c4cnco4)nc3)cn2)CCN1c1ncncn1` [Example 38, (R,E)-5-(5-(2-(2-(3-((2-(2-fluoroethoxy)ethoxy)methyl)-4-(1,3,5-triazin-2-yl)piperazin-1-yl)pyrimidin-5-yl)vinyl)pyridin-2-yl)oxazole], the results for the Ki in assay [1] and in assay [2] (setting [3]) were ≥ 1200 nM and 2 nM, respectively. Also, in assay [2], the “Selectivity ratio (Assay 2/Assay 1)” value amounted to 600.
In the same order, the values of `Cn1cc(-c2ncc(C#Cc3cnc(N4CCN(c5ncccn5)[C@@H](COCCF)C4)nc3)cn2)cn1` [Example 51, (R)-2-(3-((2-fluoroethoxy)methyl)-4-(pyrimidin-2-yl)piperazin-1-yl)-5-((2-(1-methyl-1H-pyrazol-4-yl)pyrimidin-5-yl)ethynyl)pyrimidine] are ≥ 1200 nM, 1.83 nM and 654.
Taken in the same sequence, the figures for `OC[C@H]1CN(c2cc(F)ncn2)CCN1c1ncc(/C=C/c2ccc(-n3ccnc3)nc2)cn1` [Example 15, (R,E)-(1-(5-(2-(6-(1H-imidazol-1-yl)pyridin-3-yl)vinyl)pyrimidin-2-yl)-4-(6-fluoropyrimidin-4-yl)piperazin-2-yl)methanol] were ≥ 12000 nM, 1 nM and 12000.
In the same order, the values of `OC(CF)COC[C@H]1CN(c2ncc(C#Cc3ccc(-c4cnco4)nc3)cn2)CCN1c1ncncn1` (stereo partly drawn) [Example 67, 1-fluoro-3-(((R)-4-(5-((6-(oxazol-5-yl)pyridin-3-yl)ethynyl)pyrimidin-2-yl)-1-(1,3,5-triazin-2-yl)piperazin-2-yl)methoxy)propan-2-ol] are ≥ 1200 nM, 1.5 nM and 798.
For the molecule `FCCOC[C@H]1CN(c2ccncc2)CCN1c1ncc(/C=C/c2ccc(-n3ccnc3)nc2)cn1` [Example 31, (R,E)-5-(2-(6-(1H-imidazol-1-yl)pyridin-3-yl)vinyl)-2-(2-((2-fluoroethoxy)methyl)-4-(pyridin-4-yl)piperazin-1-yl)pyrimidine], the Ki in assay [1] is 1300 nM; in assay [2] (setting [3]), 0.5 nM. Further, the “Selectivity ratio (Assay 2/Assay 1)” value in assay [2] was 2600.
Taken in the same sequence, the figures for `COC[C@H]1CN(c2ncc(/C=C/c3ccc(-n4ccnc4)nc3)cn2)CCN1c1ncccn1` [Example 2, (R,E)-5-(2-(6-(1H-imidazol-1-yl)pyridin-3-yl)vinyl)-2-(3-(methoxymethyl)-4-(pyrimidin-2-yl)piperazin-1-yl)pyrimidine] were ≥ 12000 nM, 0.9 nM and 13333.
For the molecule `COC[C@H]1CN(c2ncc(C#Cc3ccc(-n4ccnc4)nc3)cn2)CCN1c1ccnc(F)n1` [Example 61, (R)-4-(4-(5-((6-(1H-imidazol-1-yl)pyridin-3-yl)ethynyl)pyrimidin-2-yl)-2-(methoxymethyl)piperazin-1-yl)-2-fluoropyrimidine], the Ki in assay [1] is ≥ 1200 nM; in assay [2] (setting [3]), 1.49 nM. In assay [2], the “Selectivity ratio (Assay 2/Assay 1)” value came to 805.

The record behind these values is patent US20260224758A1, “ALPHA-SYNUCLEIN BINDERS AND METHODS OF USE” (Merck Sharp & Dohme LLC, priority 2023, published 2026).
